Patent publication US20070167492A1, “Molluscicidal agents” (priority 2003, published 2007)

Experiments:
[1] = system: Deroceras reticulatum (grey field slug); assay: Example 1: pot test, treated winter wheat seed with 5 adult slugs per pot, 14 days; type: in vivo
Protocol: (§1) Winter wheat (Kampa race; thousand grain weight of 51 grams) was used in an experiment to test the efficacy of the compositions of the present inventions in relation to known molluscicidal compounds. The seeds were disinfected for soil and germ moulds with 2 ml of Beret Gold (comprising 25 g/l of the fungicide fludioxonil) per kg of seed.
(§2) Sepiret® was added to all dry disinfections, and is the coating that was added to all agents of which the formulation was not suitable for coating.
The seeds were sown in earthenware pots with an internal diameter of 20 cm and a height of 18 cm, filled with 7 cm of potting soil (Trio BV, Weesp, The Netherlands) and with a top 2 cm of white quartz sand. A total of 40 seeds was placed in each pot, in a pattern of concentric circles on top of the quartz sand, the germ facing upwards. To each pot a total of 5 adult specimens of the test slug Deroceras reticulatum (grey field slug) were added. The pots were incubated at ±15° C. with a relative humidity of ±90% and light regime of ±12 hours light/12 hours dark, without artificial lighting. The pots were not irrigated overhead. In total, 4 parallel tests were performed for each test.
Following the addition of the slugs, the number of damaged seeds was counted after 2, 3, 7, 10 and 14 days. The number of plants present (germinated and not eaten or damaged by the slugs) was determined 3, 7, 10 and 14 days after the start of the test. […] The number of dead slugs was counted 2, 3, 7, 10 and 14 days after the start of the test (but not removed). Finally, on days 3, 7, 10 and 14 after the start of the test, the number fecal pellets was counted.
The data were statistically analysed by using F-tests (α=0.05) and pair-wise Student-tests.

[2] = system: Winter wheat (Kampa race) seeds; assay: Seed germination test of treated winter wheat seeds (rolled in paper); type: in vivo; settings: 3x50 seeds, 6 days at 22° C.
Protocol: as §1, §2
Table 2 provides an overview of the amounts of diluent water and Sepiret® used for treating the wheat seeds. Table 2 further provides the quality of the coating and the percentages of germinating seeds in a seed germination test. In this test, the percentage of germination of 3×50 seeds, rolled in paper, was determined after 6 days at 22° C. (continuously) and a 16 hours light regime.

[3] = 2 ml formulated per kg seed, 2 days after sowing
[4] = 2 ml formulated per kg seed, 3 days after sowing
[5] = 2 ml formulated per kg seed, 7 days after sowing
[6] = 2 ml formulated per kg seed, 10 days after sowing
[7] = 2 ml formulated per kg seed, 14 days after sowing
[8] = 4 ml formulated per kg seed, 2 days after sowing
[9] = 4 ml formulated per kg seed, 3 days after sowing
[10] = 4 ml formulated per kg seed, 7 days after sowing
[11] = 4 ml formulated per kg seed, 10 days after sowing
[12] = 4 ml formulated per kg seed, 14 days after sowing
[13] = 8 ml formulated per kg seed, 2 days after sowing
[14] = 8 ml formulated per kg seed, 3 days after sowing
[15] = 8 ml formulated per kg seed, 7 days after sowing
[16] = 8 ml formulated per kg seed, 10 days after sowing
[17] = 8 ml formulated per kg seed, 14 days after sowing
[18] = 23 ml formulated per kg seed, 2 days after sowing
[19] = 23 ml formulated per kg seed, 3 days after sowing
[20] = 23 ml formulated per kg seed, 7 days after sowing
[21] = 23 ml formulated per kg seed, 10 days after sowing
[22] = 23 ml formulated per kg seed, 14 days after sowing

CN1COCN(Cc2cnc(Cl)s2)/C1=N\[N+](=O)[O-] [thiamethoxam]
number of utilizable plants after 14 days ([1]; 2 ml formulated per kg seed): 0.3
percentage of damaged seeds after 14 days ([1]; 2 ml formulated per kg seed): 97%
Mean number of damaged seeds per pot [1, 3]: 5.0
Mean number of dead slugs per pot [1, 3]: 0
Mean number fecal pellets per pot [1, 4]: 42
Mean number of damaged seeds per pot [1, 4]: 18.0
Mean number of dead slugs per pot [1, 4]: 0
Mean number of plants present per pot [1, 4]: 7.3
Mean number fecal pellets per pot [1, 5]: 107
Mean number of damaged seeds per pot [1, 5]: 37.3
Mean number of dead slugs per pot [1, 5]: 0
Mean number of plants present per pot [1, 5]: 0.3
Mean number fecal pellets per pot [1, 6]: 158
Mean number of damaged seeds per pot [1, 6]: 39.0
Mean number of dead slugs per pot [1, 6]: 0
Mean number of plants present per pot [1, 6]: 0.3
Mean number fecal pellets per pot [1, 7]: 144
Mean number of damaged seeds per pot [1, 7]: 38.8
Mean number of dead slugs per pot [1, 7]: 0
Mean number of plants present per pot [1, 7]: 0.3
number of utilizable plants after 14 days ([1]; 4 ml formulated per kg seed): 0
percentage of damaged seeds after 14 days ([1]; 4 ml formulated per kg seed): 98%
Mean number of damaged seeds per pot [1, 8]: 1.8
Mean number of dead slugs per pot [1, 8]: 0
Mean number fecal pellets per pot [1, 9]: 30
Mean number of damaged seeds per pot [1, 9]: 15.5
Mean number of dead slugs per pot [1, 9]: 0
Mean number of plants present per pot [1, 9]: 6.0
Mean number fecal pellets per pot [1, 10]: 115
Mean number of damaged seeds per pot [1, 10]: 37.0
Mean number of dead slugs per pot [1, 10]: 0
Mean number of plants present per pot [1, 10]: 0.3
Mean number fecal pellets per pot [1, 11]: 126
Mean number of damaged seeds per pot [1, 11]: 36.5
Mean number of dead slugs per pot [1, 11]: 0.3
Mean number of plants present per pot [1, 11]: 0
Mean number fecal pellets per pot [1, 12]: 133
Mean number of damaged seeds per pot [1, 12]: 39.0
Mean number of dead slugs per pot [1, 12]: 0.5
Mean number of plants present per pot [1, 12]: 0
number of utilizable plants after 14 days ([1]; 8 ml formulated per kg seed): 3.8
percentage of damaged seeds after 14 days ([1]; 8 ml formulated per kg seed): 84%
Mean number of damaged seeds per pot [1, 13]: 2.0
Mean number of dead slugs per pot [1, 13]: 0
Mean number fecal pellets per pot [1, 14]: 33
Mean number of damaged seeds per pot [1, 14]: 10.3
Mean number of dead slugs per pot [1, 14]: 0
Mean number of plants present per pot [1, 14]: 5.5
Mean number fecal pellets per pot [1, 15]: 85
Mean number of damaged seeds per pot [1, 15]: 29.8
Mean number of dead slugs per pot [1, 15]: 0
Mean number of plants present per pot [1, 15]: 5.3
Mean number fecal pellets per pot [1, 16]: 108
Mean number of damaged seeds per pot [1, 16]: 30.8
Mean number of dead slugs per pot [1, 16]: 0
Mean number of plants present per pot [1, 16]: 5.5
Mean number fecal pellets per pot [1, 17]: 112
Mean number of damaged seeds per pot [1, 17]: 33.8
Mean number of dead slugs per pot [1, 17]: 0.3
Mean number of plants present per pot [1, 17]: 5.5
number of utilizable plants after 14 days ([1]; 23 ml formulated per kg seed): 2.5
percentage of damaged seeds after 14 days ([1]; 23 ml formulated per kg seed): 79%
Mean number of damaged seeds per pot [1, 18]: 0.5
Mean number of dead slugs per pot [1, 18]: 0
Mean number fecal pellets per pot [1, 19]: 20
Mean number of damaged seeds per pot [1, 19]: 8.5
Mean number of dead slugs per pot [1, 19]: 0.3
Mean number of plants present per pot [1, 19]: 6.8
Mean number fecal pellets per pot [1, 20]: 91
Mean number of damaged seeds per pot [1, 20]: 29.8
Mean number of dead slugs per pot [1, 20]: 0.3
Mean number of plants present per pot [1, 20]: 6.3
Mean number fecal pellets per pot [1, 21]: 122
Mean number of damaged seeds per pot [1, 21]: 30.0
Mean number of dead slugs per pot [1, 21]: 0.8
Mean number of plants present per pot [1, 21]: 7.0
Mean number fecal pellets per pot [1, 22]: 131
Mean number of damaged seeds per pot [1, 22]: 31.5
Mean number of dead slugs per pot [1, 22]: 0.8
Mean number of plants present per pot [1, 22]: 5.8
differences in the number of damaged seeds ([1]; Example 1, dosages tested): did not result in significant differences
protection / slug controlling effect (conclusion) ([1]; Example 1, winter wheat seed treatment, dosages tested): no sufficient protection to the plants
Percentage germinated ([2]; 2 ml formulated per kg seed): 88%
Percentage germinated ([2]; 4 ml formulated per kg seed): 78%
Percentage germinated ([2]; 8 ml formulated per kg seed): 61%
Percentage germinated ([2]; 23 ml formulated per kg seed): 73%
